Test results: ChEMBL document CHEMBL3272039, “Potenial antitumor agents. 28. Deoxyribonucleic acid polyintercalating agents” (J Med Chem, 1978)

What was measured:
Bos taurus = organism: Bos taurus; assay: Displacement of ethidium bromide from calf thymus DNA by spectrofluorometric analysis
P388 = assay: Antitumor activity against mouse P388 cells allografted in ip dosed BDF1 mouse at optimum dose administered qd for 5 days relative to control; assay type: functional
Mus musculus [1] = assay: (§1) Toxicity in ip dosed BDF1 mouse allografted with mouse P388 cells administered qd for 5 days; assay type: organism-based; conditions: mouse, in vivo, 120 h
[2] = Lipophilic-hydrophilic balance, Rm of the compound by reversed-phase chromatographic analysis; assay type: physicochemical
[3] = as §1; assay type: organism-based; conditions: BDF1, mouse, in vivo
Mus musculus [4] = assay: Toxicity in ip dosed BDF1 mouse allografted with mouse L1210 cells administered qd for 5 days; assay type: organism-based; conditions: mouse, in vivo, 120 h
L1210 = assay: Antitumor activity against mouse L1210 cells allografted in ip dosed BDF1 mouse at optimum dose administered qd for 5 days relative to control; assay type: functional

Structure (SMILES)	C50 (Bos taurus) [µM]	ILS (P388) [%]	Activity (Mus musculus [1]) [mg/kg/day]	Rm [2]	MTD at 120 h [3] [mg/kg/day]	Activity (Mus musculus [4]) [mg/kg/day]	ILS (L1210) [%]
c1ccc2c(NCCCCCCCNc3c4ccccc4nc4ccccc34)c3ccccc3nc2c1	0.1	67	5	0.27	–	–	–
Br.O=S(=O)(CCCNc1ccnc2ccccc12)Nc1ccc(Nc2c3ccccc3nc3ccccc23)cc1	0.12	>25	–	-0.45	375	–	–
Cl.O.c1ccc(OCCCCNc2ccnc3ccccc23)c(Nc2c3ccccc3nc3ccccc23)c1	2.6	>25	–	-0.07	20	–	–
Cl.O.O=S(=O)(CCCCCS(=O)(=O)Nc1ccc(Nc2c3ccccc3nc3ccccc23)cc1)Nc1ccc(Nc2c3ccccc3nc3ccccc23)cc1	0.07	49	210	-0.02	–	210	28
c1ccc2c(NCCCCCCCCNc3c4ccccc4nc4ccccc34)c3ccccc3nc2c1	0.11	55	2.5	0.44	–	–	–
CS(=O)(=O)Nc1ccc(Nc2c3ccccc3nc3c(C(N)=O)cccc23)c(OCCCCOc2cc(NS(C)(=O)=O)ccc2Nc2c3ccccc3nc3c(C(N)=O)cccc23)c1.Cl.O	0.72	>25	–	-0.87	275	–	–
Cl.c1ccc(OCCCCCCCCCCOc2ccccc2Nc2c3ccccc3nc3ccccc23)c(Nc2c3ccccc3nc3ccccc23)c1	8	>25	–	0.92	> 500	–	–
Cl.O=S(=O)(CCCCS(=O)(=O)Nc1ccc(Nc2c3ccccc3nc3ccccc23)cc1)Nc1ccc(Nc2c3ccccc3nc3ccccc23)cc1	0.053	>25	–	-0.11	> 500	–	–
c1ccc2c(NCCNc3c4ccccc4nc4ccccc34)c3ccccc3nc2c1	0.7	>25	–	-0.44	5	–	–
c1ccc2c(NCCCCCNc3c4ccccc4nc4ccccc34)c3ccccc3nc2c1	0.21	36	7.5	-0.06	–	–	–
c1ccc2c(NCCCCCCCCCCCCNc3c4ccccc4nc4ccccc34)c3ccccc3nc2c1	0.11	>25	–	0.79	5	–	–
Cl.Nc1c2ccccc2nc2ccccc12 [AMINACRINE HYDROCHLORIDE]	8.1	>25	–	-0.08	12.5	–	–
COc1cc(NS(=O)(=O)CCCS(=O)(=O)Nc2ccc(Nc3c4ccccc4nc4ccccc34)c(OC)c2)ccc1Nc1c2ccccc2nc2ccccc12.CS(=O)(=O)O.O	–	–	50	0.22	–	50	–
Cl.c1ccc(OCCCCCCOc2ccccc2Nc2c3ccccc3nc3ccccc23)c(Nc2c3ccccc3nc3ccccc23)c1	2.1	>25	–	0.71	> 500	–	–
c1ccc2c(NCCCCNc3c4ccccc4nc4ccccc34)c3ccccc3nc2c1	0.3	>25	–	-0.26	10	–	–
Cl.c1ccc(OCCCCCOc2ccccc2Nc2c3ccccc3nc3ccccc23)c(Nc2c3ccccc3nc3ccccc23)c1	1.4	>25	–	0.6	> 500	–	–
c1ccc2c(NCCCCCCNc3c4ccccc4nc4ccccc34)c3ccccc3nc2c1	0.15	53	2.5	0.13	–	–	–
c1ccc2c(NCCCCCCCCCCCCCCCCNc3c4ccccc4nc4ccccc34)c3ccccc3nc2c1	0.23	>25	–	0.88	–	–	–
Cl.O.c1ccc(OCCCCCCNc2ccnc3ccccc23)c(Nc2c3ccccc3nc3ccccc23)c1	0.99	>25	–	0.42	15	–	–

Structure (SMILES)	C50 (Bos taurus) [µM]	ILS (P388) [%]	Activity (Mus musculus [1]) [mg/kg/day]	Rm [2]	MTD at 120 h [3] [mg/kg/day]	Activity (Mus musculus [4]) [mg/kg/day]	ILS (L1210) [%]
CS(=O)(=O)Nc1ccc(Nc2c3ccccc3nc3ccccc23)c(OCCCCOc2cc(NS(C)(=O)=O)ccc2Nc2c3ccccc3nc3ccccc23)c1.Cl	0.22	>25	–	0.01	> 500	–	–
COc1cc(NS(=O)(=O)CCCCCCS(=O)(=O)Nc2ccc(Nc3c4ccccc4nc4ccccc34)c(OC)c2)ccc1Nc1c2ccccc2nc2ccccc12.Cl.O	0.15	>25	–	0.42	270	–	–
Cl.c1ccc(OCCCCCCCCCOc2ccccc2Nc2c3ccccc3nc3ccccc23)c(Nc2c3ccccc3nc3ccccc23)c1	3.3	>25	–	0.85	> 500	–	–
c1ccc2c(NCCCCCCCCCCNc3c4ccccc4nc4ccccc34)c3ccccc3nc2c1	0.09	33	2.5	0.65	–	–	–
O.c1ccc(OCCCNc2ccnc3ccccc23)c(Nc2c3ccccc3nc3ccccc23)c1	2.7	>25	–	-0.19	50	–	–
Cl.c1ccc(OCCCCOc2ccccc2Nc2ccnc3ccccc23)c(Nc2ccnc3ccccc23)c1	9.2	>25	–	-0.1	25	–	–
Cl.O=S(=O)(CCCCCCNc1c2ccccc2nc2ccccc12)Nc1ccc(Nc2c3ccccc3nc3ccccc23)cc1	0.21	>25	–	0.08	150	–	–
CCN(CC)CCCC(C)Nc1ccnc2cc(Cl)ccc12.Cl (stereo not given)	11	>25	–	–	40	–	–
Cl.O.c1ccc(OCCOc2ccccc2Nc2c3ccccc3nc3ccccc23)c(Nc2c3ccccc3nc3ccccc23)c1	0.4	>25	–	0.17	125	–	–
CCN(CC)CCCC(C)Nc1c2ccc(Cl)cc2nc2ccc(OC)cc12.CS(C)(=O)=O (stereo not given)	0.51	>25	–	–	90	–	–
Cl.O.c1ccc(OCCCCCNc2ccnc3ccccc23)c(Nc2c3ccccc3nc3ccccc23)c1	1.9	>25	–	0.23	17	–	–
Cl.c1ccc(OCCCCOc2ccccc2Nc2c3ccccc3nc3ccccc23)c(Nc2c3ccccc3nc3ccccc23)c1	0.8	>25	–	0.53	> 500	–	–
COc1cc(NS(=O)(=O)CCCCS(=O)(=O)Nc2ccc(Nc3c4ccccc4nc4c(C(N)=O)cccc34)c(OC)c2)ccc1Nc1c2ccccc2nc2c(C(N)=O)cccc12.Cl.O	0.068	>25	–	-0.64	11	–	–
Cl.c1ccc(OCCCCCCCOc2ccccc2Nc2c3ccccc3nc3ccccc23)c(Nc2c3ccccc3nc3ccccc23)c1	3.8	>25	–	0.75	> 500	–	–
Cl.O.c1ccc(OCCCCCCCNc2ccnc3ccccc23)c(Nc2c3ccccc3nc3ccccc23)c1	0.71	>25	–	0.52	25	–	–
Cl.c1ccc(OCCCCCCCCOc2ccccc2Nc2c3ccccc3nc3ccccc23)c(Nc2c3ccccc3nc3ccccc23)c1	9	>25	–	0.82	> 500	–	–
c1ccc2c(NCCCCCCCCCCCCCCNc3c4ccccc4nc4ccccc34)c3ccccc3nc2c1	0.14	>25	–	0.82	–	–	–
Cl.c1ccc(OCCCCCCCCNc2ccnc3ccccc23)c(Nc2c3ccccc3nc3ccccc23)c1	0.6	>25	–	0.59	31	–	–
